Experimental data as given in ChEMBL document CHEMBL5233277, “Oxidative Metabolism as a Modulator of Kratom's Biological Actions” (J Med Chem, 2021).
Active and inactive are the calls of the source. No cut-off for these calls is given here.

Tests used:
[1] = test system: Mus musculus; test: Antinociceptive activity in po dosed 129Sv6 mouse model assessed as peak effect measured at 15 mins by radiant heat tail flick assay; assay type: functional; conditions: 129Sv6, 0.25 h
[2] = test system: Mus musculus; test: Antinociceptive activity in sc dosed C57BL/6J mouse model assessed as peak effect measured at 20 mins by radiant heat tail flick assay; assay type: functional
[3] = test system: Mus musculus; test: Antinociceptive activity in po dosed 129Sv6 mouse model assessed as time required for peak effect at ED50 by radiant heat tail flick assay; assay type: functional
[4] = test system: Mus musculus; test: Antinociceptive activity in sc dosed 129Sv6 mouse model assessed as time required for peak effect at ED50 by radiant heat tail flick assay; assay type: functional
[5] = test system: Mus musculus; test: Antinociceptive activity in po dosed C57BL/6J mouse model assessed as time required for peak effect at ED50 by radiant heat tail flick assay; assay type: functional
[6] = Toxicity in C57BL/6J mouse assessed as effect on locomotion at 20 mg/kg, po measured after 3 hrs; assay type: organism-based; conditions: in vivo
[7] = Drug metabolism in C57BL/6J mouse plasma assessed as mitragynine pseudoindoxyl formation at 30 mg/kg, po measured after 20 mins by LC-MS/MS analysis; assay type: ADME, organism-based; conditions: in vivo
[8] = Drug metabolism in 129Sv6 mouse plasma assessed as mitragynine pseudoindoxyl formation at 10 mg/kg, po measured after 15 mins by LC-MS/MS analysis; assay type: ADME, organism-based; conditions: in vivo, 0.25 h
[9] = Drug metabolism in C57BL/6J mouse brain assessed as mitragynine pseudoindoxyl formation at 30 mg/kg, po measured after 20 mins by LC-MS/MS analysis; assay type: ADME, organism-based; conditions: in vivo
[10] = Drug concentration in C57BL/6J mouse brain at 30 mg/kg, po measured after 20 mins by LC-MS/MS analysis; assay type: ADME, organism-based; conditions: read-out: Ct
[11] = Drug concentration in 129Sv6 mouse brain at 10 mg/kg, po measured after 15 mins by LC-MS/MS analysis; assay type: ADME, organism-based; conditions: read-out: Ct
[12] = Drug concentration in C57BL/6J mouse brain at 30 mg/kg, sc measured after 20 mins by LC-MS/MS analysis; assay type: ADME, organism-based; conditions: read-out: Ct
[13] = Drug concentration in 129Sv6 mouse brain at 10 mg/kg, sc measured after 15 mins by LC-MS/MS analysis; assay type: ADME, organism-based; conditions: read-out: Ct
[14] = Stability in C57BL/6J mouse liver microsomes assessed as half life at 1 uM incubated for 60 mins by LC-MS/MS analysis; assay type: ADME, Microsome; conditions: 1 h
[15] = target: Cytochrome P450 3A (Homo sapiens, UniProt P08684+P20815+Q9HB55+P24462); test: Metabolic stability in human liver microsomes assessed as CYP3A-mediated decomposition by measuring half life at 1 uM incubated for 60 mins in presence of ketoconazole by LC-MS/MS analysis; assay type: ADME, Microsome; conditions: 1 h
[16] = target: T1, Cytochrome P450 3A (Mus musculus, UniProt O09158+Q64464+Q64481+Q9JMA7); test: Metabolic stability in C57BL/6J mouse liver microsomes assessed as CYP3A-mediated decomposition by measuring half life at 1 uM incubated for 60 mins in presence of ketoconazole by LC-MS/MS analysis; assay type: ADME, Microsome; conditions: 1 h
[17] = target: T1, Cytochrome P450 3A; test: Metabolic stability in 129Sv6 mouse liver microsomes assessed as CYP3A-mediated decomposition by measuring half life at 1 uM incubated for 60 mins in presence of ketoconazole by LC-MS/MS analysis; assay type: ADME, Microsome; conditions: 1 h
[18] = Drug metabolism in C57BL/6J mouse liver microsomes assessed as mitragynine pseudoindoxyl formation at 1 uM incubated for 60 mins by LC-MS/MS analysis; assay type: ADME, Microsome; conditions: 1 h
[19] = Drug metabolism in human liver microsomes assessed as mitragynine pseudoindoxyl formation at 1 uM incubated for 60 mins in presence of ketoconazole by LC-MS/MS analysis; assay type: ADME, Microsome; conditions: 1 h
[20] = Drug metabolism in C57BL/6J mouse liver microsomes assessed as mitragynine pseudoindoxyl formation at 1 uM incubated for 60 mins in presence of ketoconazole by LC-MS/MS analysis; assay type: ADME, Microsome; conditions: 1 h
[21] = Drug metabolism in human liver microsomes assessed as compound depletion at 1 uM incubated for 60 mins in presence of NADPH by LC-MS/MS analysis; assay type: ADME, Microsome; conditions: 1 h
[22] = Drug metabolism in human liver microsomes assessed as mitragynine pseudoindoxyl formation at 1 uM incubated for 60 mins in presence of NADPH by LC-MS/MS analysis; assay type: ADME, Microsome; conditions: 1 h
[23] = Drug metabolism in human S9 fraction assessed as compound depletion at 1 uM incubated for 60 mins in presence of NADPH by LC-MS/MS analysis; assay type: ADME, subcellular; conditions: s9, 1 h
[24] = Drug metabolism in human S9 fraction assessed as mitragynine pseudoindoxyl formation at 1 uM incubated for 60 mins in presence of NADPH by LC-MS/MS analysis; assay type: ADME, subcellular; conditions: s9, 1 h
[25] = Drug metabolism in human S9 fraction assessed as 3-dehydromitragynine formation at 1 uM incubated for 60 mins in presence of NADPH by LC-MS/MS analysis; assay type: ADME, subcellular; conditions: s9, 1 h
[26] = Drug metabolism in human S9 fraction assessed as mitragynine pseudoindoxyl formation at 1 uM incubated for 60 mins in absence of NADPH by LC-MS/MS analysis; assay type: ADME, subcellular; conditions: s9, 1 h
[27] = Drug metabolism in C57BL/6J mouse brain assessed as 3-dehydromitragynine formation at ED80, po; assay type: ADME, tissue-based
[28] = Drug metabolism in 129Sv6 mouse brain assessed as 3-dehydromitragynine formation at ED80, po; assay type: ADME, tissue-based
[29] = Drug metabolism in 129Sv6 mouse plasma assessed as 3-dehydromitragynine formation at ED80, po; assay type: ADME, cell-free
[30] = Drug metabolism in human liver microsomes assessed as 3-dehydromitragynine formation at 1 uM incubated for 60 mins by LC-MS/MS analysis; assay type: ADME, Microsome; conditions: 1 h
[31] = Drug metabolism in 129Sv6 mouse liver microsomes assessed as 3-dehydromitragynine formation at 1 uM incubated for 60 mins by LC-MS/MS analysis; assay type: ADME, Microsome; conditions: 1 h
[32] = Drug metabolism in C57BL/6J mouse liver microsomes assessed as 3-dehydromitragynine formation at 1 uM incubated for 60 mins by LC-MS/MS analysis; assay type: ADME, Microsome; conditions: 1 h
[33] = Drug metabolism in human liver microsomes assessed as 3-dehydromitragynine formation at 1 uM incubated for 60 mins in presence of ketoconazole by LC-MS/MS analysis; assay type: ADME, Microsome; conditions: 1 h
[34] = Drug metabolism in human liver microsomes assessed as 3-dehydromitragynine formation at 1 uM incubated for 60 mins in absence of NADPH by LC-MS/MS analysis; assay type: ADME, Microsome; conditions: 1 h
[35] = test system: Mus musculus; test: Antinociceptive activity in KOR knock out C57BL/6J mouse at 45 mg/kg, po measured after 20 mins; assay type: functional, organism-based
[36] = test system: Mus musculus; test: Antinociceptive activity in DOR knock out C57BL/6J mouse at 45 mg/kg, po measured after 20 mins; assay type: functional, organism-based
[37] = test system: Mus musculus; test: Antinociceptive activity in MOR knock out 129Sv6 mouse at 10 mg/kg, po measured after 15 mins; assay type: functional, organism-based
[38] = test system: Mus musculus; test: Antinociceptive activity in KOR knock out 129Sv6 mouse at 10 mg/kg, po measured after 15 mins; assay type: functional, organism-based
[39] = Drug metabolism in C57BL/6J mouse plasma assessed as mitragynine pseudoindoxyl formation at 30 mg/kg, po measured after 8 hrs by LC-MS/MS analysis; assay type: ADME, organism-based; conditions: in vivo
[40] = Drug concentration in C57BL/6J mouse brain at 30 mg/kg, po measured after 24 hrs by LC-MS/MS analysis; assay type: ADME, organism-based; conditions: in vivo, BLD = below limit of detection

CC[C@@H]1CN2CCc3c([nH]c4cccc(OC)c34)[C@@H]2C[C@@H]1/C(=C\OC)C(=O)OC
ED50 [1]: 4 mg/kg
ED50 [2]: 25.9 mg/kg
Time [3]: 15 min
Time [4]: 15 min
Time [5]: 15 min
Activity [6]: Non-Toxic
Drug metabolism [7]: 20 nM
Drug metabolism [8]: 13 nM
Drug metabolism [9]: 40 nM
concentration at 20 min [10]: 6.63 µM
concentration at 0.25 h [11]: 12.2 µM
concentration at 20 min [12]: 9.74 µM
concentration at 0.25 h [13]: 30.1 µM
t1/2 [14]: 5.9 min
t1/2 [15]: 37.4 min
t1/2 [16]: 35.8 min
t1/2 [17]: 24.4 min
Drug metabolism [18]: Metabolite_Detected
Drug metabolism [19]: Metabolite_Notdetected
Drug metabolism [20]: Metabolite_Notdetected
Drug metabolism [21]: Metabolite_Detected
Drug metabolism [22]: Metabolite_Detected
Drug metabolism [23]: Metabolite_Detected
Drug metabolism [24]: Metabolite_Detected
Drug metabolism [25]: Metabolite_Detected
Drug metabolism [26]: Metabolite_Notdetected
Drug metabolism [27]: 0.094 µM
Drug metabolism [28]: 0.035 µM
Drug metabolism [29]: 0.028 µM
Drug metabolism [30]: Metabolite_Detected
Drug metabolism [31]: Metabolite_Detected
Drug metabolism [32]: Metabolite_Detected
Drug metabolism [33]: Metabolite_Detected
Drug metabolism [34]: Metabolite_Detected
Activity [35]: Active
Activity [36]: Active
Activity [37]: inactive
Activity [38]: Active
Drug metabolism [39]: Metabolite_Notdetected
Ct [40]: Bld
